Several values for one entry are separate records, joined by “and”; a condition that tells them apart may be missing. Equal entries are not always repeated.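 1) Cells in 96-well plates. 2) Compound, 48 h, 5 concentrations. 3) Linear interpolation between surrounding doses. 4) Unreached endpoint = highest concentration. The concentration for 50% growth inhibition is given as GI50. TGI denotes the concentration required for complete inhibition of growth.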

These results are taken from PubChem BioAssay (NCI).

Some test systems named below: SR leukemia; SK-MEL-2 melanoma; HCT-116 colon; NCI-H23 lung; BT-549 breast; MDA-MB-435; OVCAR-3 ovarian; U251 CNS; SNB-19 CNS; HCC-2998 colon.
What all share (assay): NCI tumour cell line growth inhibition, 48 h

Turning to `C/C(=N\Nc1nc2ccccc2[nH]1)c1ccc2ccccc2n1`, the TGI in the test with SR leukemia was 0.448 µM; with SK-MEL-2 melanoma, 7.23 µM; with HCT-116 colon, 7.48 µM; in the test on NCI-H23 lung, 16.1 µM; in the test on BT-549 breast, > 100 µM; with MDA-MB-435, 17 µM. Further, the TGI amounted to 2.95 µM in the test with OVCAR-3 ovarian, 14.3 µM with U251 CNS and 15.9 µM with SNB-19 CNS.
In the case of `Nc1nc(=O)n(C2CC(O)C(CO)O2)c2nc(-c3ccc(-c4ccccc4)cc3)cnc12` (stereo unspecified), the TGI with SR leukemia, in the test on SK-MEL-2 melanoma, in the test with HCT-116 colon, in the test with NCI-H23 lung, in the test on BT-549 breast and in the test with HCC-2998 colon was > 100 µM throughout. Further, the TGI in the test with MDA-MB-435 is > 100 µM; in the test with U251 CNS, 42.6 µM; in the test on SNB-19 CNS, 91.1 µM.
Consider `O=c1[nH]nc(-c2ccccc2)c2[nH]c3c(c12)CCCc1ccccc1-3`, for which the TGI is 69.9 µM in the test on SR leukemia; 28.5 µM in the test with HCT-116 colon; > 100 µM in the test with NCI-H23 lung; 47.4 µM in the test on BT-549 breast; 28 µM in the test with HCC-2998 colon; 29.6 µM with MDA-MB-435. Besides, the figures for the TGI with OVCAR-3 ovarian, in the test with U251 CNS and in the test with SNB-19 CNS were 66.3 µM, 28 µM and 26.8 µM, respectively.
Take `COc1ccc(-c2c(C#N)c(N)n(C3OC(COC(C)=O)C(OC(C)=O)C(OC(C)=O)C3OC(C)=O)c(=S)c2C#N)cc1` (stereo unspecified): the TGI with SK-MEL-2 melanoma was > 100 µM and 39.8 µM; in the test on HCT-116 colon, > 100 µM; with NCI-H23 lung, > 100 µM; in the test on BT-549 breast, 89.3 µM and 72 µM; in the test on HCC-2998 colon, > 100 µM and 38.2 µM; in the test on MDA-MB-435 it was > 100 µM and 26.2 µM. Besides, the TGI is > 100 µM and 32.3 µM in the test on OVCAR-3 ovarian; > 100 µM with U251 CNS; > 100 µM with SNB-19 CNS. Besides, the GI50 with MDA-MB-435 is 44.1 µM and 13.4 µM; with OVCAR-3 ovarian it was 44.4 µM and 15.1 µM.
As to `Cc1cccc(C)c1NC(=O)/C(CC(=O)CC(c1ccccc1)c1c(O)c2ccccc2oc1=O)=N/O` (stereo unspecified), the TGI with SK-MEL-2 melanoma, in the test on HCT-116 colon, with NCI-H23 lung, with BT-549 breast, in the test on HCC-2998 colon and with MDA-MB-435 was > 100 µM in each case. For the same compound, the TGI in the test on OVCAR-3 ovarian, in the test on U251 CNS and in the test with SNB-19 CNS was > 100 µM each time.
In the case of `Cc1nc2ccccc2n1Cc1ccc(NC(=S)NC2CCCCC2)cc1`, the TGI in the test on SK-MEL-2 melanoma, in the test on HCT-116 colon, in the test with NCI-H23 lung, in the test with BT-549 breast, in the test with HCC-2998 colon and with MDA-MB-435 was > 100 µM in each case. For the same compound, the TGI was > 70.3 µM with OVCAR-3 ovarian, > 100 µM in the test with U251 CNS and > 100 µM in the test with SNB-19 CNS.
For `CCOC(=O)C(/C=N/C(N)=S)=C(/O)c1ccccc1`, the TGI in the test on SK-MEL-2 melanoma, in the test with HCT-116 colon, in the test on NCI-H23 lung, in the test on BT-549 breast, in the test with HCC-2998 colon and in the test on MDA-MB-435 was > 100 µM throughout. For the same compound, the TGI in the test on OVCAR-3 ovarian, in the test on U251 CNS and with SNB-19 CNS was > 100 µM each time.
On to `COc1cc(C2C(Cl)C(=O)N2NC(=O)c2ccccc2O)cc(OC)c1OC` (stereo unspecified), for which the TGI was > 10 µM with SR leukemia; 9.95 µM in the test with NCI-H23 lung; > 10 µM in the test on BT-549 breast; > 10 µM with MDA-MB-435; > 10 µM with OVCAR-3 ovarian; > 10 µM in the test on U251 CNS. Further, the TGI in the test with SNB-19 CNS was > 10 µM.
As for `COc1ccc(OC/C(N=Cc2cccnc2)=N/NC(=O)c2ccncc2)cc1`, the TGI with SK-MEL-2 melanoma is > 100 µM; with HCT-116 colon, > 100 µM; in the test on NCI-H23 lung, > 100 µM; in the test with BT-549 breast it was > 100 µM; in the test on HCC-2998 colon it was > 100 µM; in the test with MDA-MB-435, 82.1 µM. Besides, the TGI in the test with OVCAR-3 ovarian, in the test with U251 CNS and with SNB-19 CNS was > 100 µM each time.
In the case of `CN1CCN2CCN(C)CCN(CC1)CC2`, the TGI in the test with SR leukemia, with SK-MEL-2 melanoma, in the test with HCT-116 colon, with NCI-H23 lung, in the test with BT-549 breast and in the test on MDA-MB-435 was > 100 µM in each case. The TGI in the test on OVCAR-3 ovarian, with U251 CNS and in the test on SNB-19 CNS was > 100 µM throughout.
`CSc1c(C#N)c(=O)n(N)c2n[nH]c(C)c12`: the TGI with SR leukemia, in the test on SK-MEL-2 melanoma, in the test with HCT-116 colon, with NCI-H23 lung, in the test with BT-549 breast and in the test with HCC-2998 colon was > 100 µM each time. The TGI in the test with MDA-MB-435, in the test with U251 CNS and in the test on SNB-19 CNS was > 100 µM in each case.
Take `O=C1CSC2(CC(/C=C/c3ccccc3[N+](=O)[O-])=NN2c2cccc(S(=O)(=O)O)c2)N1c1nc2ccccc2s1` (stereo unspecified): the TGI was 63.1 µM in the test with SR leukemia; 35.4 µM with SK-MEL-2 melanoma; > 75 µM with HCT-116 colon; 34.4 µM in the test on NCI-H23 lung; 33.1 µM in the test on BT-549 breast; > 75 µM with HCC-2998 colon. Also, the TGI is 28.1 µM with MDA-MB-435, 33.6 µM with U251 CNS and 35.1 µM in the test on SNB-19 CNS.
Turning to `O=C(CN1CCOCC1)c1ccc2c(c1)oc(=O)n2CCN1CCCCC1`, the TGI in the test with SR leukemia, in the test on SK-MEL-2 melanoma, in the test with HCT-116 colon, in the test with NCI-H23 lung, with BT-549 breast and in the test with MDA-MB-435 was > 100 µM each time. Besides, the TGI in the test on OVCAR-3 ovarian, with U251 CNS and with SNB-19 CNS was > 100 µM each time.
Consider `C=C(C)[C@H]1C=C[C@@H](OC(C)=O)[C@@]2(COC(C)=O)[C@H](OC(=O)CCC)[C@H]3[C@@H](OC(C)=O)[C@@H](C)C[C@]3(O)C(=O)[C@@](C)(OC(C)=O)[C@H]12`, for which the TGI in the test with SR leukemia was > 100 µM; in the test with SK-MEL-2 melanoma, > 100 µM; with HCT-116 colon it was > 100 µM; in the test on NCI-H23 lung, > 100 µM; with BT-549 breast, > 100 µM; in the test with HCC-2998 colon, 86.5 µM. Further, the TGI in the test with MDA-MB-435 is 44.2 µM; with U251 CNS, > 100 µM; with SNB-19 CNS, > 100 µM.
